Assays:
Assay in all cases: relative viability (nuclei count vs DMSO), 5 days (fraction); higher = more cells survive
[1] = tested on: 201T
How it was run: (§1)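 Cells from lung cancer lines were seeded into 1536-well plates and, one day later, dosed by pin tool. Treatments were either a single drug or a fixed dose of an anchor drug with five library-drug doses (not always all listed) in √10 steps. After 5 days, nuclei were stained in a one-step fixation (final 0.05% Triton X-100, 1% formaldehyde, 1 ug/ml Hoechst) and counted on 4× images, and relative viability is the treated-to-vehicle nuclei ratio, as the median of duplicate plates.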

[2] = tested on: EKVX
How it was run: as §1

[3] = tested on: BEN
How it was run: as §1

[4] = tested on: LK-2
How it was run: as §1

[5] = tested on: NCI-H2023
How it was run: as §1

[6] = tested on: NCI-H358
How it was run: as §1

[7] = tested on: COR-L 105
How it was run: as §1

[8] = tested on: NCI-H1563
How it was run: as §1

[9] = tested on: NCI-H727
How it was run: as §1

[10] = tested on: SW 900
How it was run: as §1

[11] = tested on: HCC-15
How it was run: as §1

[12] = tested on: NCI-H520
How it was run: as §1

[13] = tested on: NCI-H838
How it was run: as §1

[14] = tested on: PC-3 [JPC-3]
How it was run: as §1

[15] = tested on: NCI-H322M
How it was run: as §1

[16] = tested on: ABC-1
How it was run: as §1

[17] = tested on: NCI-H1651
How it was run: as §1

[18] = tested on: CAL-12T
How it was run: as §1

[19] = tested on: LU99A
How it was run: as §1

[20] = tested on: NCI-H522
How it was run: as §1

[21] = tested on: NCI-H460
How it was run: as §1

[22] = tested on: EMC-BAC-2
How it was run: as §1

Cc1cn(-c2cc(NC(=O)c3ccc(C)c(Nc4nccc(-c5cccnc5)n4)c3)cc(C(F)(F)F)c2)cn1 [Nilotinib] + Cc1nc(Nc2ncc(C(=O)Nc3c(C)cccc3Cl)s2)cc(N2CCN(CCO)CC2)n1 [Dasatinib] (partner 0.075 µM)
relative viability ([1]; first compound 0.01 µM): 0.404
relative viability ([1]; first compound 0.03162 µM): 0.451
relative viability ([1]; first compound 0.1 µM): 0.295
relative viability ([2]; first compound 0.001 µM): 0.461
relative viability ([2]; first compound 0.003162 µM): 0.477
relative viability ([2]; first compound 0.01 µM): 0.554
relative viability ([2]; first compound 0.03162 µM): 0.467
relative viability ([2]; first compound 0.1 µM): 0.432
relative viability ([3]; first compound 0.001 µM): 0.336
relative viability ([3]; first compound 0.003162 µM): 0.338
relative viability ([3]; first compound 0.01 µM): 0.278
relative viability ([3]; first compound 0.03162 µM): 0.322
relative viability ([3]; first compound 0.1 µM): 0.221
relative viability ([4]; first compound 0.001 µM): 0.311
relative viability ([4]; first compound 0.003162 µM): 0.239
relative viability ([4]; first compound 0.01 µM): 0.294
relative viability ([4]; first compound 0.03162 µM): 0.247
relative viability ([4]; first compound 0.1 µM): 0.183
relative viability ([5]; first compound 0.001 µM): 0.471
relative viability ([5]; first compound 0.003162 µM): 0.569
relative viability ([5]; first compound 0.01 µM): 0.828
relative viability ([5]; first compound 0.03162 µM): 0.418
relative viability ([5]; first compound 0.1 µM): 0.405
relative viability ([6]; first compound 0.001 µM): 0.177
relative viability ([6]; first compound 0.003162 µM): 0.153
relative viability ([6]; first compound 0.01 µM): 0.18
relative viability ([6]; first compound 0.03162 µM): 0.178
relative viability ([6]; first compound 0.1 µM): 0.157
relative viability ([7]; first compound 0.001 µM): 0.374
relative viability ([7]; first compound 0.003162 µM): 0.357
relative viability ([7]; first compound 0.01 µM): 0.297
relative viability ([7]; first compound 0.03162 µM): 0.345
relative viability ([7]; first compound 0.1 µM): 0.222
relative viability ([8]; first compound 0.001 µM): 0.447
relative viability ([8]; first compound 0.003162 µM): 0.447
relative viability ([8]; first compound 0.01 µM): 0.442
relative viability ([8]; first compound 0.03162 µM): 0.492
relative viability ([8]; first compound 0.1 µM): 0.329
relative viability ([9]; first compound 0.001 µM): 0.415
relative viability ([9]; first compound 0.003162 µM): 0.339
relative viability ([9]; first compound 0.01 µM): 0.425
relative viability ([9]; first compound 0.03162 µM): 0.41
relative viability ([9]; first compound 0.1 µM): 0.302
relative viability ([10]; first compound 0.001 µM): 0.538
relative viability ([10]; first compound 0.003162 µM): 0.617
relative viability ([10]; first compound 0.01 µM): 0.564
relative viability ([10]; first compound 0.03162 µM): 0.442
relative viability ([10]; first compound 0.1 µM): 0.315
relative viability ([11]; first compound 0.001 µM): 0.607
relative viability ([11]; first compound 0.003162 µM): 0.689
relative viability ([11]; first compound 0.01 µM): 0.665
relative viability ([11]; first compound 0.03162 µM): 0.456
relative viability ([11]; first compound 0.1 µM): 0.433
relative viability ([12]; first compound 0.001 µM): 0.224
relative viability ([12]; first compound 0.003162 µM): 0.171
relative viability ([12]; first compound 0.01 µM): 0.198
relative viability ([12]; first compound 0.03162 µM): 0.156
relative viability ([12]; first compound 0.1 µM): 0.147
relative viability ([13]; first compound 0.001 µM): 0.279
relative viability ([13]; first compound 0.003162 µM): 0.302
relative viability ([13]; first compound 0.01 µM): 0.278
relative viability ([13]; first compound 0.03162 µM): 0.268
relative viability ([13]; first compound 0.1 µM): 0.291
relative viability ([14]; first compound 0.001 µM): 0.95
relative viability ([14]; first compound 0.003162 µM): 1.09
relative viability ([14]; first compound 0.01 µM): 1.1
relative viability ([14]; first compound 0.03162 µM): 0.844
relative viability ([14]; first compound 0.1 µM): 0.528
relative viability ([15]; first compound 0.001 µM): 0.295
relative viability ([15]; first compound 0.003162 µM): 0.279
relative viability ([15]; first compound 0.03162 µM): 0.282
relative viability ([15]; first compound 0.1 µM): 0.234
relative viability ([16]; first compound 0.001 µM): 0.557
relative viability ([16]; first compound 0.003162 µM): 0.637
relative viability ([16]; first compound 0.01 µM): 0.643
relative viability ([16]; first compound 0.03162 µM): 0.554
relative viability ([16]; first compound 0.1 µM): 0.24
relative viability ([17]; first compound 0.001 µM): 0.426
relative viability ([17]; first compound 0.003162 µM): 0.387
relative viability ([17]; first compound 0.01 µM): 0.42
relative viability ([17]; first compound 0.1 µM): 0.208
relative viability ([18]; first compound 0.001 µM): 0.376
relative viability ([18]; first compound 0.003162 µM): 0.387
relative viability ([18]; first compound 0.01 µM): 0.456
relative viability ([18]; first compound 0.03162 µM): 0.178
relative viability ([18]; first compound 0.1 µM): 0.137
relative viability ([19]; first compound 0.001 µM): 0.482
relative viability ([19]; first compound 0.003162 µM): 0.702
relative viability ([19]; first compound 0.01 µM): 0.557
relative viability ([19]; first compound 0.03162 µM): 0.359
relative viability ([19]; first compound 0.1 µM): 0.282
relative viability ([20]; first compound 0.001 µM): 0.851
relative viability ([20]; first compound 0.003162 µM): 0.873
relative viability ([20]; first compound 0.01 µM): 1.16
relative viability ([20]; first compound 0.03162 µM): 0.715
relative viability ([20]; first compound 0.1 µM): 0.596
relative viability ([21]; first compound 0.001 µM): 0.487
relative viability ([21]; first compound 0.003162 µM): 0.384
relative viability ([21]; first compound 0.01 µM): 0.65
relative viability ([21]; first compound 0.03162 µM): 0.444
relative viability ([21]; first compound 0.1 µM): 0.432
relative viability ([22]; first compound 0.001 µM): 0.308
relative viability ([22]; first compound 0.003162 µM): 0.308
relative viability ([22]; first compound 0.01 µM): 0.325
relative viability ([22]; first compound 0.03162 µM): 0.27
relative viability ([22]; first compound 0.1 µM): 0.296

From the supplement of paper PMC10307832
